Measured values from US10829466B2, “Stilbene derivative and preparation method thereof” (BEIJING INSTITUTE OF TECHNOLOGY, priority 2015, dated 2020).
Entries after “also recorded” stand apart in the source; their conditions may differ.

Key:
[1] = system: neurogenesis in rat hippocampus; assay: Detection of neurogenesis in rat hippocampus by BrdU labeling (DAB immunohistochemistry); assay type: in vivo; conditions: for BrdU labeling result: SD male rats, intraperitoneal injection 28 days, 4 mg/Kg, compared with the control group; for neurogenesis activity (in words): under the test conditions of the embodiments, same dose; for activity of proliferation promotion (BrdU positive) at low dose: low dose 0.5 mg/Kg, compared with blank sample (V), FIG. 10
Source text: Example 36: Detection of Neurogenesis in Rat Hippocampus by BrdU (5-Bromo-2-deoxy Uridine, 5-bromodeoxyuridine) Labeling
Experimental animals: 10-week-old SD male rats having a body weight of about 300 g are purchased. The rats are used in experiments one week after being adapted to the environment in an animal room. Experimental groups: control group, drug group. 2-3 rats per group. Experimental reagent: injection oil is used to dissolve a compound to be tested. Rates in the control group are injected with the same dose of dissolving oil.
Test method: intraperitoneal injection is carried out 28 days at the injection dose of 0.5 ml-1 ml each time. Dose: 4 mg/Kg.
1) marker injection: BrdU (dissolved in sterile saline solution at a concentration of 10 mg/mL) solution is injected intraperitoneally into rats. (For rats with different body weights, the injection dose of BrdU is 50 mg·Kg^−1, injection is carried out twice every 2 hour; the intraperitoneal injection 24 hours before anesthesia ends.
2) Anesthesia: Anesthesia is performed by intraperitoneal injection of sodium pentobarbital solution into rats. (For rats with different body weights, the injection dose of sodium pentobarbital is usually 70 mg·Kg^−1.)
3) Cardiac perfusion: cardiac perfusion with normal saline is performed according to a general method.
4) Taking of brain tissues: The heads of the rats are separated from the bodies with surgical forceps and scissors, and then the muscles and membrane tissues at the top of the skulls are removed and brains are then gently peeled from the skulls. The separated brains are soaked in 4% paraformaldehyde for 24-48 hours.
5) Dehydration of brain tissues: the fixed tissues are soaked with a 20% sucrose PBS solution for more than 72 hours, and then the brain tissues are soaked with a 30% sucrose PBS solution for more than 72 hours.
6) Frozen section: the brain tissues are cut into […] thick sections by a general coronal section procedure.
7) DAB immunohistochemistry step: DNA denaturation is carried out and the sections are transferred to a 24-well plate (pH 7.4) perfused with 0.1 M PBS. The brain sections are incubated with 1% H2O2 for 30 minutes to remove […]; the sections are then treated with a 2M HCl solution for 30 minutes at room temperature to denature them. After completion of the denaturation, the brain sections are immersed in a 0.1 M sodium borate (pH 8.5) solution for 5 minutes and rinsed twice; the brain sections are incubated in 0.5% PBST for 1 hour at room temperature, and then are blocked for 1 hour with a serum blocking solution on a shaker at room temperature, and the serum blocking solution is from the same source as a secondary antibody; the samples are treated on the shaker with a BrdU primary antibody overnight at 4° C., and the BrdU primary antibody is diluted with the blocking solution; the samples are incubated with the biotinylated secondary antibody IgG for 2 hours at room temperature; a C (ABC kit) solution is incubated at room temperature for 2 hours; finally, after 3 to 5 minutes of color development by the DAB kit, the samples are mounted by using a PVP mounting medium and then dried, and finally the experimental results are detected under a microscope.
The dose-effect relationships of different compounds is further tested according to the method of Example 36, and the compounds include WS-54 (E-4-isobutyrylamino-3′,4′-methylenedioxy-stilbene), WS-69 (E-4-Methylsulfonamino-3′,4′-methylenedioxy-stilbene), WS-70 (E-4-Benzamino-3′,4′-methylenedioxy-stilbene), and WS-74 (E-4-Cyclopropylformamino-3′,4′-methylenedioxy-stilbene).

HEK293 = assay: In vitro cytotoxicity experiment (MTT, cell survival); assay type: cell-based; conditions: for neuronal cytotoxicity / neurotoxicity (in words): HEK293, in vitro test, FIG. 3; for cell survival rates: HEK293, 24 h, MTT, at all three doses, low, medium and high (100 μM; 500 μM; 1000 μM)
Description: Example 35: In Vitro Cytotoxicity Experiment the Experimental Cell Line is HEK293
Cells are cultured in a 96-well plate at a cell concentration of 5000/well. After 24 hours of cell culture, the drug treatment is performed and the experiment is carried out on two groups: the control group is added with DMSO with the same concentration as that for the experimental group; in the experimental group, each compound is tested at three doses of low, medium and high doses (100 μM; 500 μM; 1000 μM), and five parallels are tested at each dose; in the blank group, a complete medium is added with a compound to be tested with the same concentration as that for the experimental group. Constant temperature incubation is carried out for 24 h in a CO2 incubator, MTT with a final concentration of 0.5 mg/mL is then added; 4 hours later, 200 μL of DMSO solution is added, and the absorbance is measured at 490 nm. The cell survival is calculated according to the absorbance; Survival %=(Average concentration−Blank concentration)/(Average control concentration−Blank concentration)*100%.
Reference is made to FIG. 3 which illustrates an in vitro cytotoxicity test chart of a novel stilbene derivative according to an example of embodiments of the present invention.

Compound	BrdU labeling result [1]	neuronal cytotoxicity / neurotoxicity (in words) (HEK293)	further results
O=S(=O)(Nc1ccc(/C=C/c2ccc3c(c2)OCO3)cc1)c1ccccc1 [LSS-12, E-4-benzenesulfonylamino-3′,4′-methylenedioxy-stilbene]	positive	–	–
E-4′-acetamino-3,4-methylenedioxy-diphenylethane [WS-35, reference compound]	–	–	neurogenesis activity (in words) [1]: no neurogenesis activity
O=S(=O)(Nc1ccc(/C=C/c2ccc3c(c2)OCO3)cc1)C1CC1 [LSS-13, E-4-cyclopropylsulfonylamino-3′,4′-methylenedioxy-stilbene]	positive	–	–
COc1cc(/C=C/c2ccc(OC(C)=O)cc2)cc(OC)c1 [WS-56, E-4-acetoxy-3′,5′-dimethoxy-stilbene, reference compound]	–	–	activity of proliferation promotion (BrdU positive) at low dose [1]: no significant activity
CC(C)C(=O)Nc1ccc(/C=C/c2ccc3c(c2)OCO3)cc1 [WS-54, E-4-isobutyrylamino-3′,4′-methylenedioxy-stilbene]	positive	low neurotoxicity	activity of proliferation promotion (BrdU positive) at low dose [1]: significant activities of proliferation promotion
COc1ccc(/C=C/c2ccc(NC(C)=O)cc2)cc1OC [WS-43, E-4′-acetylamino-3,4-dimethoxy-stilbene, reference compound]	–	–	neurogenesis activity (in words) [1]: no significant neurogenesis activity
CC(=O)Nc1ccc(/C=C/c2ccc3c(c2)OCO3)cc1F [WS-71, E-3,4-methylenedioxy-3′-fluoro-4′-acetylamino-stilbene]	positive	low neurotoxicity	–
Nc1ccc(/C=C/c2ccc3c(c2)OCO3)cc1 [WS-4, E-4-amino-3′,4′-methylenedioxy-stilbene, reference compound]	–	high neuronal cytotoxicity	cell survival rates (HEK293): less than 50%
CC(=O)Nc1ccc(C#Cc2ccc3c(c2)OCO3)cc1 [WS-77, E-4′-acetamino-3,4-methylenedioxy-diphenylacetylene, reference compound]	positive	–	neurogenesis activity (in words) [1]: weak neurogenesis activity
O=C(Cc1ccccc1)Nc1ccc(/C=C/c2ccc3c(c2)OCO3)cc1 [LSS-16, E-4-phenylacetylamino-3′,4′-methylenedioxy-stilbene]	positive	–	–
CN(C)S(=O)(=O)Nc1ccc(/C=C/c2ccc3c(c2)OCO3)cc1 [LSS-17, E-4-(N,N-dimethylamino-sulfonamino)-3′,4′-methylenedioxy-stilbene]	positive	–	–
CC(=O)Nc1cccc(/C=C/c2ccc3c(c2)OCO3)c1 [WS-49, E-3-acetylamino-3′,4′-methylenedioxy-stilbene, reference compound]	–	higher neuronal cytotoxicity	cell survival rates (HEK293): ≤ 20%
O=C(Nc1ccc(/C=C/c2ccc3c(c2)OCO3)cc1)c1cccs1 [WS-73, E-4-(2-thienyl)formamino-3′,4′-methylenedioxy-stilbene]	positive	low neurotoxicity	–
CC(=O)Oc1ccc(/C=C/c2ccc3c(c2)OCO3)cc1 [WS-10, E-4′-acetoxy-3,4-methylenedioxy-stilbene, reference compound]	–	–	neurogenesis activity (in words) [1]: no neurogenesis activity
O=C(Nc1ccc(/C=C/c2ccc3c(c2)OCO3)cc1)c1ccccc1 [WS-70, E-4-benzoylamino-3′,4′-methylenedioxy-stilbene]	positive	low neurotoxicity; also recorded: greatly reduced	activity of proliferation promotion (BrdU positive) at low dose [1]: significant activities of proliferation promotion
CC(=O)N(C)c1ccc(/C=C/c2ccc3c(c2)OCO3)cc1 [WS-80, E-4′-(N-acetyl-N-methylamino)-3,4-methylenedioxy-stilbene, reference compound]	negative	–	neurogenesis activity (in words) [1]: no significant neurogenesis activity
O=C(Nc1ccc(/C=C/c2ccc3c(c2)OCO3)cc1)C1CCC1 [WS-83, E-4-cyclobutylformamino-3′,4′-methylenedioxy-stilbene]	positive	–	–
O=C(Nc1ccc(/C=C/c2ccc3c(c2)OCO3)cc1)C1CC1 [WS-74, E-4-cyclopropylcarboxamino-3′,4′-methylenedioxy-stilbene]	positive	low neurotoxicity; also recorded: greatly reduced	activity of proliferation promotion (BrdU positive) at low dose [1]: significant activities of proliferation promotion
CC(=O)Nc1ccc(/C=C/C(=O)c2ccc3c(c2)OCO3)cc1 [WS-37, 4-acetylamino-3′,4′-methylenedioxychalcone, reference compound]	–	higher neuronal cytotoxicity	cell survival rates (HEK293): less than 10%
COc1cc(/C=C/c2ccc(NC(C)=O)cc2)cc(OC)c1 [WS-61, E-4-acetylamino-3′,5′-dimethoxy-stilbene, reference compound]	–	reduce neurotoxicity	–
O=C(Nc1ccc(/C=C/c2ccc3c(c2)OCO3)cc1)c1ccccn1 [LSS-20, E-4-(2-pyridinecarboxamino)-3′,4′-methylenedioxy-stilbene]	positive	–	–
E-4′-tertamino-3,4-methylenedioxy-stilbene [WS-60, reference compound]	–	–	neurogenesis activity (in words) [1]: weak neurogenesis activity
CS(=O)(=O)Nc1ccc(/C=C/c2ccc3c(c2)OCO3)cc1 [WS-69, E-4-methanesulfonylamino-3′,4′-methylenedioxy-stilbene]	positive	low neurotoxicity	activity of proliferation promotion (BrdU positive) at low dose [1]: significant activities of proliferation promotion
Oc1ccc(/C=C/c2ccc3c(c2)OCO3)cc1 [WS-11, E-4′-hydroxy-3,4-methylenedioxy-stilbene, reference compound]	–	–	neurogenesis activity (in words) [1]: no neurogenesis activity
